Measured values as given in publication PMC12756723, “Derivatives of the Cashew Nut Shell Liquid as Ligands of Pseudomonas aeruginosa Phenazine Protein D (PaPhzD)” (ACS Omega, 2025).
“Also recorded” adds a separate entry of the source.

Experiments:
[1] = biological target: T1, PaPhzD (Pseudomonas aeruginosa, UniProt P0DPB9); test: Thermal shift assay (TSA) with SYPRO Orange; format: binding; settings: for ΔTm at 50 µM: read-out: ΔTm of PaPhzD; for Concentration–response behavior of ΔTm: 6.25 to 100 μM
T1 construct: inferred from Ni-NTA purification with imidazole elution; made in house; host or cells: E. coli BL21(DE3)
T1 sequence (P0DPB9 whole entry): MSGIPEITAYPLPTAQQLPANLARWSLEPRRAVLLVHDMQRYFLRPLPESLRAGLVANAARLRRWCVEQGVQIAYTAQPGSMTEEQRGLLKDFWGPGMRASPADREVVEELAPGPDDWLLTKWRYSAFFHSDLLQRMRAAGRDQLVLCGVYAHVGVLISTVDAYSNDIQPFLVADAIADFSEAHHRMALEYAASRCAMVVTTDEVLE
Procedure: Thermal shift assays were performed on an Applied Biosystems 7500 RT-PCR (Applied Biosystems, Foster City, CA USA). All experiments were carried out in triplicate with 1 °C per minute increments in temperatures that range from 25 to 85 °C in 96-well PCR plates (PCR plates 96-well, BioRad), sealed with transparent capping strips (Flatcap strips, BioRad). The fluorescence of SYPRO Orange (Invitrogen S6650) was monitored (excitation wavelength, 492 nm; emission wavelength, 610 nm). Before the compounds’ screening, protein and DMSO concentrations were evaluated to improve PaPhzD stability throughout the assay.
The protein concentration required for an optimal signal-to-noise ratio (>5-fold) was evaluated by analysis of the raw fluorescence curves at different PaPhzD concentrations (1–5 μM). Then, the effect of DMSO (0–10%) over PaPhzD T m was evaluated at the optimal protein concentration. Fluorescence raw data were recorded using Applied Biosystems 7500 Software v2.0 and then processed with NAMI software to calculate T m values by the first-derivative method.
LDT compounds were screened at a final concentration of 50 μM. Briefly, 1 μL of each compound (1 mM DMSO stock solution) was added to a mixed solution containing 5 μM PaPhzD diluted in 50 mM Tris–HCl buffer (pH 8.0) containing 100 mM NaCl, 1 mM DTT, and SYPRO Orange dye (Invitrogen S6650) (1:100 dilution). Each compound was assayed in triplicate, and ΔT m values were calculated by comparison to reference wells that had 1 μL DMSO instead of the LDT compounds. Differences between T m values (ΔT m) were considered statistically significant when p < 0.01, according to the one-way ANOVA followed by Dunnett’s post-test for multiple comparisons, available in GraphPad Prism 9.0 software (GraphPad Software, San Diego, CA, USA, www.graphpad.com).
Compounds with ΔT m values statistically different from the reference were also assayed at different concentrations (ranging from 6.25 to 100 μM) to evaluate the concentration–response behavior. The ΔT m versus concentration plots were generated using the nonlinear regression method available in GraphPad Prism version 9.0.

[2] = system: human PPAR isoforms; design: method as in Sahin et al. 2022 (likely, number not given); settings: previously investigated; ref Sahin et al. 2022 (likely, number not given); cited from earlier work
[3] = biological target: T2, PaPhzD-FITC (Pseudomonas aeruginosa, UniProt P0DPB9); test: Fluorescence binding assay with FITC-labeled PaPhzD
T2 construct: inferred from Ni-NTA purification with imidazole elution; made in house; host or cells: E. coli BL21(DE3)
T2 sequence (P0DPB9 whole entry): as above
Procedure: PaPhzD (2.1 mg/mL) was incubated with 6 mg/mL fluorescein isothiocyanate (FITC) (Sigma-Aldrich 46950) (1:1) for 2 h at 25 °C. Next, the reaction mixture was eluted on a Hi-Trap HP desalting column (GE Healthcare) with 2 CV of 50 mM HEPES buffer (pH 8.0). The collected fractions were quantified at two different wavelengths (280 and 495 nm), and the molar ratio (Abs495/Abs280) ranging from 0.3 to 1.0 was employed for K d calculation experiments.
Subsequently, the fluorescence intensity of 0.32 μM of FITC-labeled PaPhzD was measured on a real-time thermocycler (Applied Biosystems 7500) equipped with the filter FAN (excitation wavelength: 498 nm; emission wavelength: 530 nm) for 10 min in the presence of different concentrations of each LDT compound (ranging 0.7–100 μM), previously diluted in DMSO.
The fluorescence raw data were recorded using Applied Biosystems 7500 Software v2.0, then exported to GraphPad Prism version 9.0 software to build fluorescence intensity × concentration plots and calculate K d values of the ligands by the nonlinear regression method (3-parameter fit). All experiments were carried out in triplicate using a 96-well PCR plate, manually sealed with transparent capping strips (Flatcap strips, BioRadVR).

[4] = system: PPAR LBDs; design: method as in not printed (previous PPAR work); settings: ref not given (previous PPAR work), cited from earlier work
[5] = system: phzA2-G2; test: lacZ transcriptional fusion, phzA2-G2 operon; format: cell-based, Pseudomonas aeruginosa; settings: late exponential phase
Procedure: (§1) P. aeruginosa harbors two identically structured operons in its genome, which encode most of the enzymes responsible for PYO synthesis (phzA1-G1 and phzA2-G2) but have slightly different regulatory regions 1. lacZ transcriptional fusions for each operon were assayed at mid-log and late exponential phases (OD=1 and 3, respectively). At mid-log cultures, the expression of both QS-regulated operons is extremely low, and it increases more than 1000-fold at late exponential phase for phzA1-G1 and 4-fold for phzA2-G2, as expected. Addition of compounds 2 and 4 had no effect for both operons in the late […]
(§2) synthesis is not related to inhibition at the transcriptional level.
(§3) Figure 7S: Effect of LDT10 (2) and LDT13 (3) on the phzA1-G1 (A) and phzA2-G2 […]
(§4) (1 picture or pasted object on this page, not shown here)

[6] = system: P. aeruginosa PA14; test: Swarming assay; format: cell-based, Pseudomonas aeruginosa; settings: 100 μM
Procedure: Swarming assays were performed as described, using 6-well plates. Briefly, 3 μL of culture (OD600 = 3.0) was inoculated in the center of modified M9 (20 mM NH4Cl; 12 mM Na2HPO4; 22 mM KH2PO4; 8.6 mM NaCl; 1 mM MgSO4; 1 mM CaCl2 2 H2O; 11 mM glucose; 0.5% casamino acids (Difco)) with 0.5% of Bacto-agar (Difco), containing the respective compounds (100 μM final concentration, diluted in DMSO). Plates were incubated inside plastic bags to avoid evaporation at 30 °C for 16 h. After this period, pictures were taken, and the area covered by the colonies was measured using ImageJ. All assays were performed with four replicates, and 0.1% DMSO (v/v) was employed as a negative control.

[7] = system: P. aeruginosa; test: Colony morphology in medium containing compounds; format: cell-based, Pseudomonas aeruginosa; settings: data not shown
[8] = system: phzA1-G1; test: lacZ transcriptional fusion, phzA1-G1 operon; format: cell-based, Pseudomonas aeruginosa; settings: late exponential phase
Procedure: as §1, §2, §3, §4

[9] = system: P. aeruginosa cells (ATCC 27853); test: Bacterial growth (OD600) in the PYO screening culture; format: cell-based, Pseudomonas aeruginosa; settings: 100 μM
Procedure: (§5) The potential inhibitors, previously solubilized in DMSO, were added to the culture medium after the inoculation (final concentration = 100 μM). The control group was cultured in the presence of an equivalent volume of DMSO but without the presence of potential inhibitors. The cell suspension was maintained at 30 °C under constant agitation (180 rpm) for 24 h in a 24-well plate. After this period, the OD600 was measured to evaluate bacterial growth, and in parallel, after being subjected to centrifugation, the supernatant was read in a 96-well plate at a wavelength of 691 nm. The sterile medium used for culturing the microorganism was used as a positive control, and culture medium containing 1% DMSO was used as a negative control.

[10] = system: P. aeruginosa cells (ATCC 27853); test: Screening of PYO production inhibitors (supernatant absorbance 691 nm); format: cell-based, Pseudomonas aeruginosa; settings: 100 μM; for Pyocyanin production, Cohen's d vs control: 24 h, 30 °C; for Effect on pyocyanin production: vs DMSO control
Procedure: P. aeruginosa cells (ATCC 27853) were inoculated by depletion on King’s A agar, and the plates were incubated at 30 °C for 24 h. Isolated colonies were collected and resuspended in sterile saline solution (0.85%) until turbidity equivalent to optical density (OD) at 600 nm, equal to 0.3 (1.5 × 10^8 CFU/mL). This bacterial suspension was diluted 10-fold and used to inoculate King’s A broth.
as §5

[11] = system: P. aeruginosa PA14; test: Biofilm assay (crystal violet); format: cell-based, Pseudomonas aeruginosa; settings: 100 μM
Procedure: Exponential phase cultures of P. aeruginosa PA14 were diluted to 5 × 10^5 colony forming units (CFU) in 48-well plates with LB containing each compound (1, 3, and 5) at 100 μM final concentrations or 0.1% DMSO (v/v) as a negative control. The plate was incubated steadily at 30 °C for 20 h inside a plastic bag to avoid evaporation. After the incubation, the OD600 of each well was measured in a plate reader (SpectraMax Paradigm). The planktonic bacteria were removed by turning the plate over the waste, followed by three steps of washing with distilled water. After drying, a solution of 1% crystal violet was added to each well and incubated at room temperature for 30 min to stain the attached cells forming a ring at the air–liquid interface. The crystal violet solution was removed, and the plate was washed using the same procedure. The dye was solubilized with 30% acetic acid for 30 min at room temperature. The Abs550 was measured, and the value was divided by the OD600 for each well. A total of 24 replicates were made for each treatment (6 wells per plate, four plates)

Compound: CCCCCCCCCCCCCCCc1cccc(O)c1C(=O)OC [Compound 7]
- ΔTm at 50 µM [1]: < 0.5 °C
- PPAR activity profile [2]: do not activate PPAR receptors

Compound: CCCCCCCCCCCCCCCc1cccc(O)c1C(=O)O [Compound 1]
- Concentration–response behavior of ΔTm [1]: clear concentration–response behavior
- PPAR activity profile [2]: dual (PPARα and PPARγ) agonists

Compound: CCCCCCCCCCCCCCCc1cccc(OCC(=O)O)c1 [Compound 15]
- Kd [3]: 1000 µM
- Concentration–response behavior of ΔTm [1]: clear concentration–response behavior
- ΔTm at 50 µM [1]: -3.8 °C
- PPAR activity profile [2]: pan-agonist activity

Compound: CCCCCCCCCCCCCCCc1cccc(OC(C)(C)C(=O)OCC)c1 [Compound 14]
- Effect on Tm values for all three PPARs [4]: no effect on the T m values
- ΔTm at 50 µM [1]: < 0.5 °C
- PPAR activity profile [2]: dual (PPARα and PPARγ) agonists

Compound: CCCCCCCCCCCCCCCc1cccc(OC(C)(C)C(=O)O)c1 [Compound 16]
- ΔTm at 50 µM [1]: -2.6 °C
- PPAR activity profile [2]: pan-agonist activity

Compound: CCCCCCCCCCCCCCCc1ccc(C(=O)O)c(OC)c1 [Compound 10]
- ΔTm at 50 µM [1]: -1.2 °C
- PPAR activity profile [2]: dual (PPARα and PPARγ) agonists

Compound: CCCCCCCCCCCCCCCc1cccc(OC)c1C(=O)O [Compound 4]
- Effect on phzA2-G2 transcription [5]: no effect
- Swarming motility, % compared to control conditions [6]: 65%
- Swarming motility, Cohen's d vs control [6]: −0.95
- Kd [3]: 3.6 µM
- Concentration–response behavior of ΔTm [1]: clear concentration–response behavior
- ΔTm at 50 µM [1]: -3.3 °C
- Effect on colony morphology [7]: No effects on colony morphology
- Effect on phzA1-G1 transcription [8]: no effect
- Effect on bacterial growth [9]: without affecting bacterial growth; also recorded: no significant effect on bacterial growth
- PPAR activity profile [2]: selective PPARα agonist
- Pyocyanin production, Cohen's d vs control [10]: −2.69
- Effect on pyocyanin production [10]: decreased pyocyanin production
- Effect on biofilm formation ([11]; vs DMSO control): without affecting bacterial growth or biofilm formation; also recorded: not significantly different the control

Compound: CCCCCCCCCCCCCCCc1cccc(OCC(=O)OCC)c1 [Compound 13]
- Thermal shift in LBDs of PPARα and PPARγ [4]: negative thermal shift
- ΔTm at 50 µM [1]: -1.2 °C
- PPAR activity profile [2]: pan-agonist activity

Compound: CCCCCCCCCCCCCCCc1cccc(OC)c1 [Compound 12]
- ΔTm at 50 µM [1]: < 0.5 °C
- PPAR activity profile [2]: do not activate PPAR receptors

Compound: CCCCCCCCCCCCCCCc1cccc(OC)c1C(=O)OC [Compound 9]
- ΔTm at 50 µM [1]: < 0.5 °C
- PPAR activity profile [2]: do not activate PPAR receptors

Compound: CCCCCCCCCCCCCCCc1cccc(OC(C)=O)c1 [Compound 11]
- ΔTm at 50 µM [1]: < 0.5 °C
- PPAR activity profile [2]: do not activate PPAR receptors

Compound: CCCCCCCCCCCCCCCc1cccc(OC(C)=O)c1C(=O)OC [Compound 8]
- ΔTm at 50 µM [1]: < 0.5 °C
- PPAR activity profile [2]: do not activate PPAR receptors

Compound: CCCCCCCCCCCCCCCc1cccc(OC(C)=O)c1C(=O)O [Compound 3]
- Effect on swarming coverage area [6]: did not affect the coverage area
- Swarming motility, Cohen's d vs control [6]: 0.51
- Kd [3]: 0.72 µM
- Increase of PPAR LBDs Tm vs DMSO control ([4]; 50 μM): up to +17 °C
- Concentration–response behavior of ΔTm [1]: clear concentration–response behavior
- ΔTm at 50 µM [1]: -4.7 °C
- Effect on colony morphology [7]: No effects on colony morphology
- PPAR activity profile [2]: pan-agonist activity
- Pyocyanin production, Cohen's d vs control [10]: −1.37
- Effect on pyocyanin production [10]: no effect on pyocyanin production
- Biofilm mass, % of the control [11]: ~30%
- Biofilm, Cohen's d vs control [11]: −2.29
